Consider 13 molecules from US20060281755A1, “SYNERGISTIC MODULATION OF FLT3 KINASE USING AMINOPYRIMIDINES KINASE MODULATORS” (priority 2005, published 2006).

Structures are written as SMILES. Bounds are passed on as bounds.

The test system of one test is MV4-11 cells. Put plainly: Inhibition of MV4-11 cell proliferation (CellTiterGlo). The note with it: Homo sapiens, MV4-11, 72 h, read-out: MV4-11 (uM). (In general: Cellular ATP, detected with luciferase, serves as a proxy for viable cell number.)
Test [1] addresses T1, isolated kinase domain of the human FLT3 receptor (a.a. 571-993) (Homo sapiens, UniProt P36888).
T1 construct: human FLT3 receptor (a.a. 571-993)
T1 sequence (P36888 571-993): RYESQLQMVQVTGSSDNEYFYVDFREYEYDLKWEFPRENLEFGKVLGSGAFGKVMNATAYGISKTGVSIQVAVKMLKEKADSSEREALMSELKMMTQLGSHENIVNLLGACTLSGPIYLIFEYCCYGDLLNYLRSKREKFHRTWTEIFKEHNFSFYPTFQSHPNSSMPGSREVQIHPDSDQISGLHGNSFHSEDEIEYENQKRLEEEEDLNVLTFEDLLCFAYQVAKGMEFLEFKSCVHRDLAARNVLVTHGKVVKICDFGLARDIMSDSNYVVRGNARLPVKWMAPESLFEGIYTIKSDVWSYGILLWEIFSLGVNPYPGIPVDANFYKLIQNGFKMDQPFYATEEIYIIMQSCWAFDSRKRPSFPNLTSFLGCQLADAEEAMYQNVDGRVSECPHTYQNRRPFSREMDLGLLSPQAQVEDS
As to the kind of experiment: FLT3 fluorescence polarization kinase assay. The following applies: uncertainty ±10%. Format: biochemical. From the text:
The FLT3 FP assay utilizes the fluorescein-labeled phosphopeptide and the anti-phosphotyrosine antibody included in the Panvera Phospho-Tyrosine Kinase Kit (Green) supplied by Invitrogen. When FLT3 phosphorylates polyGlu4Tyr, the fluorescein-labeled phosphopeptide is displaced from the anti-phosphotyrosine antibody by the phosphorylated poly Glu4Tyr, thus decreasing the FP value. […] The kinase reaction is stopped with the addition of EDTA. The fluorescein-labeled phosphopeptide and the anti-phosphotyrosine antibody are added and incubated for 30 minutes at room temperature.
(In general: In fluorescence polarisation assays a small probe gives low polarisation when free and higher when bound to something large.)

Test [2] deals with T2, FLT ligand-induced wild-type FLT3 phosphorylation in Baf3 FLT3 cells (Homo sapiens, UniProt P36888).
T2 sequence (P36888 27-993): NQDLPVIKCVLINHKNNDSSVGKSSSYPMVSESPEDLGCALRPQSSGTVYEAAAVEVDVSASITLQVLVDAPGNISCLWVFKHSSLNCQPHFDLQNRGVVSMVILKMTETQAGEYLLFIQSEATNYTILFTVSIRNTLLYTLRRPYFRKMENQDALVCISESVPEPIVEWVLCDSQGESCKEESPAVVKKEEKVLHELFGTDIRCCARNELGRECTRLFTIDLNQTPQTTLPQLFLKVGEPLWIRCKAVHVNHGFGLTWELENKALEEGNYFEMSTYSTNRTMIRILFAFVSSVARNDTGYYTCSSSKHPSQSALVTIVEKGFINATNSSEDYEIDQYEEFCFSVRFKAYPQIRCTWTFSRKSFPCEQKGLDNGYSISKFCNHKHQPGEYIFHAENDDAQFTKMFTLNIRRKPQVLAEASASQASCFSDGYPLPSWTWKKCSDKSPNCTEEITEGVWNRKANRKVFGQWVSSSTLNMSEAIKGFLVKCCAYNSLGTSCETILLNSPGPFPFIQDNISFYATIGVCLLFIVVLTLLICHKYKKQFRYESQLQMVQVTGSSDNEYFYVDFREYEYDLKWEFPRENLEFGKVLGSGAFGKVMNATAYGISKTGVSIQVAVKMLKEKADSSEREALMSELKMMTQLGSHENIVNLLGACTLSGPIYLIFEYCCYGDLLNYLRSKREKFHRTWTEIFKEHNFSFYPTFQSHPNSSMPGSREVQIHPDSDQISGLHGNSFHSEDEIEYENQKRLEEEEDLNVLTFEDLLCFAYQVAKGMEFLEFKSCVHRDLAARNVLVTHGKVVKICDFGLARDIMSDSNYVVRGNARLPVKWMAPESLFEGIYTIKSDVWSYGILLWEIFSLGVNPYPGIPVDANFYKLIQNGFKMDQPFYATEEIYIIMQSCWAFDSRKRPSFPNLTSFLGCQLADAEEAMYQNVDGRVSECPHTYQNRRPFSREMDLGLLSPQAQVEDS
Put plainly: Cell-based FLT3 receptor ELISA. For orientation: In an ELISA, binding on a coated surface is turned into a signal by an enzyme label.
Experimental: Specific cellular inhibition of FLT ligand-induced wild-type FLT3 phosphorylation was measured in the following manner: Baf3 FLT3 cells overexpressing the FLT3 receptor were obtained from Dr. Michael Heinrich (Oregon Health and Sciences University).

Experimental for MV4-11 cells: To measure total cell growth an equal volume of CellTiterGlo reagent was added to each well, according to the manufacturer's instructions, and luminescence was quantified.
MV4-11 cells express the FLT3 internal tandem duplication mutation, and thus are entirely dependent upon FLT3 activity for growth. […] In contrast, the Baf3 cell proliferation is driven by the cytokine IL-3 and thus are used as a non-specific toxicity control for test compounds.

With `CO/N=C/c1c(N)ncnc1N1CCN(C(=O)Cc2ccc(C(C)C)cc2)CC1` [Compound 7, 4-Amino-6-{4-[2-(4-isopropyl-phenyl)-acetyl]-piperazin-1-yl}-pyrimidine-5-carbaldehyde O-methyl-oxime], the IC50 was determined as 0.024 µM in the test with MV4-11 cells, 14 nM in test [1] and 2 nM in test [2].
The like results for `CCO/N=C/c1c(N)ncnc1N1CCN(C(=O)Cc2ccc(C(C)C)cc2)CC1` [Compound 13, 4-Amino-6-{4-[2-(4-isopropyl-phenyl)-acetyl]-piperazin-1-yl}-pyrimidine-5-carbaldehyde O-ethyl-oxime (anti-configuration for —C═N—O—)] were, in that order, 0.013 µM, 8 nM and 116 nM.
The like results for `CCO/N=C\c1c(N)ncnc1N1CCN(C(=O)Cc2ccc(C(C)C)cc2)CC1` [Compound 14, 4-Amino-6-{4-[2-(4-isopropyl-phenyl)-acetyl]-piperazin-1-yl}-pyrimidine-5-carbaldehyde O-ethyl-oxime (syn-configuration for —C═N—O—)] were, in that order, 0.029 µM, 24 nM and 158 nM.
The like results for `CCO/N=C/c1c(N)ncnc1N1CCN(C(=O)Nc2ccc(N3CCOCC3)cc2)CC1` [Compound 15, 4-[6-Amino-5-(ethoxyimino-methyl)-pyrimidin-4-yl]-piperazine-1-carboxylic acid (4-morpholin-4-yl-phenyl)-amide] were, in that order, 0.35 µM, 126 nM and 735 nM.
As for `CO/N=C/c1c(N)ncnc1N1CCCN(C(=O)Nc2ccc(OC(C)C)cc2)CC1` [Compound 24, 4-[6-Amino-5-(methoxyimino-methyl)-pyrimidin-4-yl]-[1,4]diazepane-1-carboxylic acid (4-isopropoxy-phenyl)-amide], the IC50 with MV4-11 cells turned out to be 0.66 µM; in test [1], 122 nM; in test [2], 16 nM.
On to `CC(C)Oc1ccc(NC(=O)N2CCN(c3ncnc(N)c3/C=N/OCCN)CC2)cc1` [Compound 25, 4-{6-Amino-5-[(2-amino-ethoxyimino)-methyl]-pyrimidin-4-yl}-piperazine-1-carboxylic acid (4-isopropoxy-phenyl)-amide], for which the IC50 worked out at 2 µM in the test with MV4-11 cells and 1150 nM in test [1].
As to `CCNC(=O)NCCO/N=C/c1c(N)ncnc1N1CCN(C(=O)Nc2ccc(OC(C)C)cc2)CC1` [Compound 26, 4-(6-Amino-5-{[2-(3-ethyl-ureido)-ethoxyimino]-methyl}-pyrimidin-4-yl)-piperazine-1-carboxylic acid (4-isopropoxy-phenyl)-amide], the IC50 in the test with MV4-11 cells was above 1 µM.
`Nc1ncnc(N2CCN(C(=O)Nc3ccc(N4CCOCC4)cc3)CC2)c1/C=N/OCCN1CCOCC1` [Compound 29, 4-{6-Amino-5-[(2-morpholin-4-yl-ethoxyimino)-methyl]-pyrimidin-4-yl}-piperazine-1-carboxylic acid (4-morpholin-4-yl-phenyl)-amide]: the IC50 in the test on MV4-11 cells is 3 µM; in test [1], above 10000 nM.
The like results for `Nc1ncnc(N2CCN(C(=O)Nc3ccc(OC4CCC4)nc3)CC2)c1/C=N/OCCN1CCOCC1` [Compound 30, 4-{6-Amino-5-[(2-morpholin-4-yl-ethoxyimino)-methyl]-pyrimidin-4-yl}-piperazine-1-carboxylic acid (6-cyclobutoxy-pyridin-3-yl)-amide] were, in that order, 2.5 µM and 1740 nM.
On to `NCCO/N=C/c1c(N)ncnc1N1CCN(C(=O)Nc2ccc(OC3CCC3)nc2)CC1` [Compound 31, 4-{6-Amino-5-[(2-amino-ethoxyimino)-methyl]-pyrimidin-4-yl}-piperazine-1-carboxylic acid (6-cyclobutoxy-pyridin-3-yl)-amide], for which the IC50 is 1.3 µM in the test on MV4-11 cells, 1450 nM in test [1] and 206 nM in test [2].
The like results for `NCCO/N=C/c1c(N)ncnc1N1CCN(C(=O)Nc2ccc(N3CCOCC3)cc2)CC1` [Compound 32, 4-{6-Amino-5-[(2-amino-ethoxyimino)-methyl]-pyrimidin-4-yl}-piperazine-1-carboxylic acid (4-morpholin-4-yl-phenyl)-amide] were, in that order, 0.79 µM, 5150 nM and 77 nM.
On to `CS(=O)(=O)NCCO/N=C/c1c(N)ncnc1N1CCN(C(=O)Nc2ccc(OC3CCC3)nc2)CC1` [Compound 33, 4-{6-Amino-5-[(2-methanesulfonylamino-ethoxyimino)-methyl]-pyrimidin-4-yl}-piperazine-1-carboxylic acid (6-cyclobutoxy-pyridin-3-yl)-amide], for which the IC50 in the test on MV4-11 cells amounted to 2.8 µM; in test [1] it was 1150 nM.
The corresponding values for `NCCO/N=C/c1c(N)ncnc1N1CCN(C(=O)Nc2ccc(N3CCCC3)cc2)CC1` [Compound 34, 4-{6-Amino-5-[(2-amino-ethoxyimino)-methyl]-pyrimidin-4-yl}-piperazine-1-carboxylic acid (4-pyrrolidin-1-yl-phenyl)-amide] are 2.5 µM and 1510 nM.
